US20260325685A1, “Radiopharmaceutical Compositions Targeting Carbonic Anhydrase IX and Uses Thereof” (RayzeBio, Inc., priority 2023, published 2026)

How the values were obtained:
human CA-IX = molecular target: T1, human CA-IX (Homo sapiens, UniProt Q16790); assay: Surface Plasmon Resonance (SPR) binding kinetics to recombinant human CA-IX (Biacore 8K, single-cycle kinetics, 1:1 binding model); conditions: Chelated Metal: Lu-175; SPR, 25° C., pH 7.4; read-out: CAIX KD
T1 construct: purchased Acro CA9-H82E3
Method in brief: (§1)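 First, ligand at 10 μg/mL was captured on streptavidin to 1200-1800 RU, with 180 s injection for CA-IX and 75 s for CA-XII. Next, compound (100-0.39 nM, 9 levels) in PBS-P+ with 1% DMSO was injected. Association lasted 120 s and dissociation 1200 s at 25° C.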

human CA-XII = molecular target: T2, human CA-XII (Homo sapiens, UniProt O43570); assay: Surface Plasmon Resonance (SPR) binding kinetics to recombinant human CA-XII (Biacore 8K, single-cycle kinetics, 1:1 binding model); conditions: Chelated Metal: Lu-175, 25° C., pH 7.4, read-out: CAXII KD
T2 construct: purchased Creative BioMart CA12-261H
T2 sequence (O43570 25-354): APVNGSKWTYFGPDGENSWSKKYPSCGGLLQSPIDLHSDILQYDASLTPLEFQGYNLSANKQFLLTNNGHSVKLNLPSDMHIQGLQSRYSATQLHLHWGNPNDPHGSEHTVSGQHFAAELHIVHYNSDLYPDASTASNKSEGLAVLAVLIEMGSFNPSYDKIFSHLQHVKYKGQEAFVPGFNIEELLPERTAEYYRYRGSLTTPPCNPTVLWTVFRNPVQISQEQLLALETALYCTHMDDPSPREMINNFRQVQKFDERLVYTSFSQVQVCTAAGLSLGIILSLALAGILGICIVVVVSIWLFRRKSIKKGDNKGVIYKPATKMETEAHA
Method in brief: as §1

NS(=O)(=O)c1nnc(NC(=O)C23CC(c4cn(CCNC(=O)[C@@H]5CN(C(=O)CN6CCN(CC(=O)O)CCN(CC(=O)O)CCN(CC(=O)O)CC6)CCN5C(=O)C[C@H](NC(=O)C[C@H](NC(=O)c5ccc(C6CC6)cn5)C(=O)O)C(=O)O)nn4)(C2)C3)s1.[Lu+3] [Compound 109.19]
Kd (human CA-IX): < 1 nM | Kd (human CA-XII): 1 to 2.5 nM

NS(=O)(=O)c1nnc(NC(=O)C23CC(c4cn(CCNC(=O)[C@@H]5CN(C(=O)CN6CCN(CC(=O)O)CCN(CC(=O)O)CCN(CC(=O)O)CC6)CCN5C(=O)C[C@H](NC(=O)C[C@H](NC(=O)Cc5ccc(S(F)(F)(F)(F)F)cc5)C(=O)O)C(=O)O)nn4)(C2)C3)s1.[Lu+3] [Compound 109.20]
Kd (human CA-IX): < 1 nM | Kd (human CA-XII): 2.5 to 10 nM

NS(=O)(=O)c1nnc(NC(=O)C23CC(c4cn(CCNC(=O)[C@@H]5CN(C(=O)CN6CCN(CC(=O)O)CCN(CC(=O)O)CCN(CC(=O)O)CC6)CCN5C(=O)C[C@H](NC(=O)C[C@H](NCc5ccc(C6CC6)cc5)C(=O)O)C(=O)O)nn4)(C2)C3)s1.[Lu+3] [Compound 109.21]
Kd (human CA-IX): < 1 nM | Kd (human CA-XII): > 10 nM

CC1(c2ccc(C(=O)N[C@@H](CC(=O)N[C@@H](CC(=O)N3CCN(C(=O)CN4CCN(CC(=O)O)CCN(CC(=O)O)CCN(CC(=O)O)CC4)C[C@H]3C(=O)NCCn3cc(C45CC(C(=O)Nc6nnc(S(N)(=O)=O)s6)(C4)C5)nn3)C(=O)O)C(=O)O)cc2)CC1.[Lu+3] [Compound 109.22]
Kd (human CA-IX): 1 to 2.5 nM | Kd (human CA-XII): 2.5 to 10 nM

NS(=O)(=O)c1nnc(NC(=O)C23CC(c4cn(CCNC(=O)[C@@H]5CN(C(=O)CN6CCN(CC(=O)O)CCN(CC(=O)O)CCN(CC(=O)O)CC6)CCN5C(=O)C[C@H](NC(=O)C[C@H](NC(=O)c5cnc(C6CC6)nc5)C(=O)O)C(=O)O)nn4)(C2)C3)s1.[Lu+3] [Compound 109.23]
Kd (human CA-IX): 2.5 to 10 nM | Kd (human CA-XII): > 10 nM

NS(=O)(=O)c1nnc(NC(=O)C23CC(c4cn(CCNC(=O)[C@@H]5CN(C(=O)CN6CCN(CC(=O)O)CCN(CC(=O)O)CCN(CC(=O)O)CC6)CCN5C(=O)C[C@H](NC(=O)C[C@H](NC(=O)c5ccc(C6(C(F)(F)F)CC6)cc5)C(=O)O)C(=O)O)nn4)(C2)C3)s1.[Lu+3] [Compound 109.24]
Kd (human CA-IX): 1 to 2.5 nM | Kd (human CA-XII): 2.5 to 10 nM

NS(=O)(=O)c1nnc(NC(=O)C23CC(c4cn(CCNC(=O)[C@@H]5CN(C(=O)CN6CCN(CC(=O)O)CCN(CC(=O)O)CCN(CC(=O)O)CC6)CCN5C(=O)C[C@H](NC(=O)C[C@H](NC(=O)c5ccc(C6(C(F)(F)F)CC6)cn5)C(=O)O)C(=O)O)nn4)(C2)C3)s1.[Lu+3] [Compound 109.25]
Kd (human CA-IX): < 1 nM | Kd (human CA-XII): 2.5 to 10 nM

CC(C)(C)c1ccc(C(=O)N[C@@H](CC(=O)N[C@@H](CC(=O)N2CCN(C(=O)CN3CCN(CC(=O)O)CCN(CC(=O)O)CCN(CC(=O)O)CC3)C[C@H]2C(=O)NCCn2cc(C34CC(C(=O)Nc5nnc(S(N)(=O)=O)s5)(C3)C4)nn2)C(=O)O)C(=O)O)cc1.[Lu+3] [Compound 109.26]
Kd (human CA-IX): 1 to 2.5 nM | Kd (human CA-XII): 2.5 to 10 nM

CC(C)(C)c1ccc(CC(=O)N[C@@H](CC(=O)N[C@@H](CC(=O)N2CCN(C(=O)CN3CCN(CC(=O)O)CCN(CC(=O)O)CCN(CC(=O)O)CC3)C[C@H]2C(=O)NCCn2cc(C34CC(C(=O)Nc5nnc(S(N)(=O)=O)s5)(C3)C4)nn2)C(=O)O)C(=O)O)cc1.[Lu+3] [Compound 109.27]
Kd (human CA-IX): 1 to 2.5 nM | Kd (human CA-XII): 2.5 to 10 nM

NS(=O)(=O)c1nnc(NC(=O)C23CC(c4cn(CCNC(=O)[C@@H]5CN(C(=O)CN6CCN(CC(=O)O)CCN(CC(=O)O)CCN(CC(=O)O)CC6)CCN5C(=O)C[C@H](NC(=O)C[C@H](NC(=O)c5n[nH]nc5C(F)(F)F)C(=O)O)C(=O)O)nn4)(C2)C3)s1.[Lu+3] [Compound 109.28]
Kd (human CA-IX): < 1 nM | Kd (human CA-XII): 1 to 2.5 nM

NS(=O)(=O)c1nnc(NC(=O)C23CC(c4cn(CCNC(=O)[C@@H]5CN(C(=O)CN6CCN(CC(=O)O)CCN(CC(=O)O)CCN(CC(=O)O)CC6)CCN5C(=O)C[C@H](NC(=O)C[C@H](NCC5CC5)C(=O)O)C(=O)O)nn4)(C2)C3)s1.[Lu+3] [Compound 109.29]
Kd (human CA-IX): 2.5 to 10 nM | Kd (human CA-XII): > 10 nM

Cc1cc(C2CC2)ccc1C(=O)N[C@@H](CC(=O)N[C@@H](CC(=O)N1CCN(C(=O)CN2CCN(CC(=O)O)CCN(CC(=O)O)CCN(CC(=O)O)CC2)C[C@H]1C(=O)NCCn1cc(C23CC(C(=O)Nc4nnc(S(N)(=O)=O)s4)(C2)C3)nn1)C(=O)O)C(=O)O.[Lu+3] [Compound 109.30]
Kd (human CA-IX): < 1 nM | Kd (human CA-XII): 2.5 to 10 nM

NS(=O)(=O)c1nnc(NC(=O)C23CC(c4cn(CCNC(=O)[C@@H]5CN(C(=O)CN6CCN(CC(=O)O)CCN(CC(=O)O)CCN(CC(=O)O)CC6)CCN5C(=O)C[C@H](NC(=O)C[C@H](NC(=O)c5n[nH]c6ccc(O)cc56)C(=O)O)C(=O)O)nn4)(C2)C3)s1.[Lu+3] [Compound 109.31]
Kd (human CA-IX): < 1 nM | Kd (human CA-XII): 2.5 to 10 nM

NS(=O)(=O)c1nnc(NC(=O)C23CC(c4cn(CCNC(=O)[C@@H]5CN(C(=O)CN6CCN(CC(=O)O)CCN(CC(=O)O)CCN(CC(=O)O)CC6)CCN5C(=O)C[C@H](NC(=O)C[C@H](NC(=O)Cc5n[nH]c6ccc(O)cc56)C(=O)O)C(=O)O)nn4)(C2)C3)s1.[Lu+3] [Compound 109.32]
Kd (human CA-IX): < 1 nM | Kd (human CA-XII): > 10 nM

CC(CCC(=O)N[C@@H](CC(=O)N[C@@H](CC(=O)N1CCN(C(=O)CN2CCN(CC(=O)O)CCN(CC(=O)O)CCN(CC(=O)O)CC2)C[C@H]1C(=O)NCCn1cc(C23CC(C(=O)Nc4nnc(S(N)(=O)=O)s4)(C2)C3)nn1)C(=O)O)C(=O)O)(c1ccccc1)c1ccc(O)cc1.[Lu+3] (stereo partly drawn) [Compound 109.33]
Kd (human CA-IX): 1 to 2.5 nM | Kd (human CA-XII): > 10 nM

NS(=O)(=O)c1nnc(NC(=O)C23CC(c4cn(CCNC(=O)[C@@H]5CN(C(=O)CN6CCN(CC(=O)O)CCN(CC(=O)O)CCN(CC(=O)O)CC6)CCN5C(=O)C[C@H](NC(=O)C[C@H](NC(=O)Cn5nc(-c6ccc(O)cc6)c6ccc(O)cc65)C(=O)O)C(=O)O)nn4)(C2)C3)s1.[Lu+3] [Compound 109.34]
Kd (human CA-IX): < 1 nM | Kd (human CA-XII): 2.5 to 10 nM

NS(=O)(=O)c1nnc(NC(=O)C23CC(c4cn(CCNC(=O)[C@@H]5CN(C(=O)CN6CCN(CC(=O)O)CCN(CC(=O)O)CCN(CC(=O)O)CC6)CCN5C(=O)C[C@H](NC(=O)C[C@H](NC(=O)c5ccc(C(F)(F)F)cc5)C(=O)O)C(=O)O)nn4)(C2)C3)s1.[Lu+3] [Compound 109.35]
Kd (human CA-IX): 1 to 2.5 nM | Kd (human CA-XII): 2.5 to 10 nM

NS(=O)(=O)c1nnc(NC(=O)C23CC(c4cn(CCNC(=O)[C@@H]5CN(C(=O)CN6CCN(CC(=O)O)CCN(CC(=O)O)CCN(CC(=O)O)CC6)CCN5C(=O)C[C@H](NC(=O)C[C@H](NC(=O)CCCc5ccc6c(c5)CCCC6)C(=O)O)C(=O)O)nn4)(C2)C3)s1.[Lu+3] [Compound 109.36]
Kd (human CA-IX): 1 to 2.5 nM | Kd (human CA-XII): 2.5 to 10 nM

NS(=O)(=O)c1nnc(NC(=O)C23CC(c4cn(CCNC(=O)[C@@H]5CN(C(=O)CN6CCN(CC(=O)O)CCN(CC(=O)O)CCN(CC(=O)O)CC6)CCN5C(=O)C[C@H](NC(=O)C[C@H](NC(=O)CCCc5ccc(Cl)cc5)C(=O)O)C(=O)O)nn4)(C2)C3)s1.[Lu+3] [Compound 109.37]
Kd (human CA-IX): < 1 nM | Kd (human CA-XII): 2.5 to 10 nM

NS(=O)(=O)c1nnc(NC(=O)C23CC(c4cn(CCNC(=O)[C@@H]5CN(C(=O)CN6CCN(CC(=O)O)CCN(CC(=O)O)CCN(CC(=O)O)CC6)CCN5C(=O)C[C@H](NC(=O)C[C@H](NC(=O)c5ccc(CC6CC6)cc5)C(=O)O)C(=O)O)nn4)(C2)C3)s1.[Lu+3] [Compound 109.38]
Kd (human CA-IX): < 1 nM | Kd (human CA-XII): 2.5 to 10 nM

CC(C)c1ccc(C(=O)N[C@@H](CC(=O)N[C@@H](CC(=O)N2CCN(C(=O)CN3CCN(CC(=O)O)CCN(CC(=O)O)CCN(CC(=O)O)CC3)C[C@H]2C(=O)NCCn2cc(C34CC(C(=O)Nc5nnc(S(N)(=O)=O)s5)(C3)C4)nn2)C(=O)O)C(=O)O)cc1.[Lu+3] [Compound 109.39]
Kd (human CA-IX): 1 to 2.5 nM | Kd (human CA-XII): 2.5 to 10 nM

CC(CCCC(=O)N1CCCC[C@H]1C(=O)N[C@@H](CC(=O)N1CCN(C(=O)CN2CCN(CC(=O)O)CCN(CC(=O)O)CCN(CC(=O)O)CC2)C[C@@H]1C(=O)NCCn1cc(C23CC(C(=O)Nc4nnc(S(N)(=O)=O)s4)(C2)C3)nn1)C(=O)O)(c1ccc(O)cc1)c1ccc(O)cc1.[Lu+3] [Compound 109.40]
Kd (human CA-IX): < 1 nM | Kd (human CA-XII): > 10 nM

NS(=O)(=O)c1nnc(NC(=O)C23CCC(c4cn(CCNC(=O)[C@@H]5CN(C(=O)CN6CCN(CC(=O)O)CCN(CC(=O)O)CCN(CC(=O)O)CC6)CCN5C(=O)CC[C@H](NC(=O)C[C@H](NC(=O)Cc5[nH]nc6ccc(O)cc56)C(=O)O)C(=O)O)nn4)(CC2)CC3)s1.[Lu+3] [Compound 109.41]
Kd (human CA-IX): < 1 nM | Kd (human CA-XII): < 1 nM

NS(=O)(=O)c1nnc(NC(=O)C23CCC(c4cn(CCNC(=O)[C@@H]5CN(C(=O)CN6CCN(CC(=O)O)CCN(CC(=O)O)CCN(CC(=O)O)CC6)CCN5C(=O)CC[C@H](NC(=O)C[C@H](NC(=O)CCCc5ccc(O)cc5)C(=O)O)C(=O)O)nn4)(CC2)CC3)s1.[Lu+3] [Compound 109.42]
Kd (human CA-IX): < 1 nM | Kd (human CA-XII): < 1 nM

NS(=O)(=O)c1nnc(NC(=O)C23CCC(c4cn(CCNC(=O)[C@@H]5CN(C(=O)CN6CCN(CC(=O)O)CCN(CC(=O)O)CCN(CC(=O)O)CC6)CCN5C(=O)CC[C@H](NC(=O)C[C@H](NC(=O)CCc5ccc(O)cc5)C(=O)O)C(=O)O)nn4)(CC2)CC3)s1.[Lu+3] [Compound 109.43]
Kd (human CA-IX): < 1 nM | Kd (human CA-XII): < 1 nM

NS(=O)(=O)c1nnc(NC(=O)C23CCC(c4cn(CCNC(=O)[C@@H]5CN(C(=O)CN6CCN(CC(=O)O)CCN(CC(=O)O)CCN(CC(=O)O)CC6)CCN5C(=O)CC[C@H](NC(=O)C[C@H](NC(=O)CCC5CCCCC5)C(=O)O)C(=O)O)nn4)(CC2)CC3)s1.[Lu+3] [Compound 109.44]
Kd (human CA-IX): < 1 nM | Kd (human CA-XII): < 1 nM

NS(=O)(=O)c1nnc(NC(=O)C23CCC(c4cn(CCNC(=O)[C@@H]5CN(C(=O)CN6CCN(CC(=O)O)CCN(CC(=O)O)CCN(CC(=O)O)CC6)CCN5C(=O)CC[C@H](NC(=O)C[C@H](NC(=O)c5n[nH]c6ccc(O)cc56)C(=O)O)C(=O)O)nn4)(CC2)CC3)s1.[Lu+3] [Compound 109.45]
Kd (human CA-IX): < 1 nM | Kd (human CA-XII): < 1 nM
